According to US20220324835A1 (Nurix Therapeutics, Inc., priority 2018, published 2022):
Where two headings read alike, the source gives them in different places.

Assays:
T-cell [1] = assay: IL-2 secretion from T-cells co-stimulated with anti-CD3 and anti-CD28 antibody (Biological Example 2); assay type: cell-based, human; details: Homo sapiens, T-cell, primary human total T-cells
In short: (§1)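 Values are fold-change over baseline: readings (IL-2 release, CD25 staining) from inhibitor-treated T-cells divided against untreated cells […]. No detailed procedure stated.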

Cbl-b = Cbl-b (Homo sapiens, UniProt Q13191); assay: Cbl-b inhibition assay (Cbl-b activity assay, FRET, Biological Example 1; 100 mM NaCl, 60 nM Src kinase); assay type: biochemical; details: upper bound stated in text lists; read-out: IC50 values in the Cbl-b inhibition assay of Biological Example 1
In short: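 FRET read-out: loss of signal marks inhibition. Mix = biotin-Avi-Cbl-b (N-term), Src kinase, UbcH5B-Ub(Bodipy-FL, irreversible conjugate), streptavidin-Tb, assay buffer.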

T-cell [2] = assay: CD25 cell surface staining on T-cells co-stimulated with anti-CD3 and anti-CD28 antibody (Biological Example 2); assay type: cell-based, human; details: Homo sapiens, T-cell, primary human total T-cells
In short: as §1

primary human NK cells = assay: NK cell activation assessed by cytokine secretion (coculture with K562 NucRed target cells); assay type: cell-based; details: for fold induction at 0.625 µM: 0.625 μM compound; for fold induction at 2.5 µM: 2.5 μM compound
In short: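 Read-out is cytokine secretion (IFNγ, TNFα, MIP1β; ELISA or Luminex) as fold over coculture without inhibitor, >2.0-fold taken as positive. Donor NK cells, IL-2 primed (60 ng/mL) overnight, received compound 1 h ahead (e.g. 0.1–10 μM, DMSO <0.1%) and were mixed 6 h with K562 NucRed targets at e.g. 5:1, 1:1, 1:5.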

[3] = 0.3 μM compound, baseline = anti-CD3/anti-CD28 stimulated cells without inhibitor, read-out: IL-2 secretion, Anti-CD3/Anti-CD28 stimulation, fold change over baseline
[4] = 1 μM compound, baseline = anti-CD3/anti-CD28 stimulated cells without inhibitor, read-out: IL-2 secretion, Anti-CD3/Anti-CD28 stimulation, fold change over baseline
[5] = 4 μM compound, baseline = anti-CD3/anti-CD28 stimulated cells without inhibitor, read-out: IL-2 secretion, Anti-CD3/Anti-CD28 stimulation, fold change over baseline
[6] = 0.3 μM compound, baseline = anti-CD3/anti-CD28 stimulated cells without inhibitor, read-out: CD25 staining, Anti-CD3/Anti-CD28 stimulation, fold change over baseline
[7] = 1 μM compound, baseline = anti-CD3/anti-CD28 stimulated cells without inhibitor, read-out: CD25 staining, Anti-CD3/Anti-CD28 stimulation, fold change over baseline
[8] = 4 μM compound, baseline = anti-CD3/anti-CD28 stimulated cells without inhibitor, read-out: CD25 staining, Anti-CD3/Anti-CD28 stimulation, fold change over baseline
[9] = K562, NK cells cocultured with K562 NucRed, 1:1 E/T, read-out: IFNγ secretion, fold change over baseline
[10] = K562, NK cells cocultured with K562 NucRed, 1:1 E/T, read-out: TNFα secretion, fold change over baseline
[11] = K562, NK cells cocultured with K562 NucRed, 1:1 E/T, 10 μM compound, read-out: IFNγ secretion, fold change over baseline
[12] = K562, NK cells cocultured with K562 NucRed, 1:1 E/T, 10 μM compound, read-out: TNFα secretion, fold change over baseline
[13] = fold change over baseline, 0.3 μM Cbl-b inhibitor, read-out: IL-2 secretion Anti-CD3/Anti-CD28 stimulation
[14] = fold change over baseline, 1 μM Cbl-b inhibitor, read-out: IL-2 secretion Anti-CD3/Anti-CD28 stimulation
[15] = fold change over baseline, 4 μM Cbl-b inhibitor, read-out: IL-2 secretion Anti-CD3/Anti-CD28 stimulation
[16] = fold change over baseline, 0.3 μM Cbl-b inhibitor, read-out: CD25 staining Anti-CD3/Anti-CD28 stimulation
[17] = fold change over baseline, 1 μM Cbl-b inhibitor, read-out: CD25 staining Anti-CD3/Anti-CD28 stimulation
[18] = fold change over baseline, 4 μM Cbl-b inhibitor, read-out: CD25 staining Anti-CD3/Anti-CD28 stimulation

Chain of Cbl-b (Q13191 36-427): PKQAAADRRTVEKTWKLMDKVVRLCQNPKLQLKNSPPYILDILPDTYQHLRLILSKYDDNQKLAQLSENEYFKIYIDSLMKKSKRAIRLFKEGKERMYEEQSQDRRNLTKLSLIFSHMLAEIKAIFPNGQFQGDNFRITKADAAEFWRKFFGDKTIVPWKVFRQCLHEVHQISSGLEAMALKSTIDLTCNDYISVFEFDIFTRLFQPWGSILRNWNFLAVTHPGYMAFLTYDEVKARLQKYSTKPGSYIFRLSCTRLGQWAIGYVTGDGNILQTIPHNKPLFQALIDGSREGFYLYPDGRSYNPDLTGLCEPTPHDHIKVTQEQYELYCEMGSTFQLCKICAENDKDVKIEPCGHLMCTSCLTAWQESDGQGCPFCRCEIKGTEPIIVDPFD

Row | SMILES | fold induction at 0.3 µM (T-cell [1]; [3]) | fold induction at 1 µM (T-cell [1]; [4]) | fold induction at 4 µM (T-cell [1]; [5]) | IC50 (Cbl-b) [nM] | fold induction at 0.3 µM (T-cell [2]; [6]) | fold induction at 1 µM (T-cell [2]; [7]) | fold induction at 4 µM (T-cell [2]; [8]) | fold induction at 0.625 µM (primary human NK cells; [9]) | fold induction at 0.625 µM (primary human NK cells; [10]) | fold induction at 2.5 µM (primary human NK cells; [9]) | fold induction at 2.5 µM (primary human NK cells; [10]) | fold induction at 10 µM (primary human NK cells; [11]) | fold induction at 10 µM (primary human NK cells; [12]) | fold induction at 0.3 µM (T-cell [1]; [13]) | fold induction at 1 µM (T-cell [1]; [14]) | fold induction at 4 µM (T-cell [1]; [15]) | fold induction at 0.3 µM (T-cell [2]; [16]) | fold induction at 1 µM (T-cell [2]; [17]) | fold induction at 4 µM (T-cell [2]; [18]) | further results
1 | C[C@H](Cc1nncn1C)c1cccc(N2Cc3c(cc(CN4CC(O)C4)cc3C(F)(F)F)C2=O)c1 [Compound 393, (R)-6-((3-hydroxyazetidin-1-yl)methyl)-2-(3-(1-(4-methyl-4H-1,2,4-triazol-3-yl)propan-2-yl)phenyl)-4-(trifluoromethyl)isoindolin-1-one] | 2.51 to 5 | > 7.5 | > 7.5 | ≤ 100 | 1.01 to 1.3 | 1.31 to 1.5 | 1.31 to 1.5 | 1.01 to 2 | 1.01 to 2 | 2.01 to 5 | 2.01 to 5 | 2.01 to 5 | 2.01 to 5 | – | – | – | – | – | – | –
2 | C[C@H](Cc1nncn1C)c1cccc(N2Cc3c(cc(CN4CC(C)(O)C4)cc3C(F)(F)F)C2=O)c1 [Compound 397] | 2.51 to 5 | > 7.5 | > 7.5 | ≤ 100 | 1.01 to 1.3 | 1.31 to 1.5 | 1.31 to 1.5 | 2.01 to 5 | 1.01 to 2 | 2.01 to 5 | 2.01 to 5 | > 5 | 2.01 to 5 | – | – | – | – | – | – | –
3 | Cc1cc(C(=O)Nc2cccc(C3(Cc4nncn4C)COC3)c2)nc(C2CC2)n1 [Compound 336, 2-cyclopropyl-6-methyl-N-(3-(3-((4-methyl-4H-1,2,4-triazol-3-yl)methyl)oxetan-3-yl)phenyl)pyrimidine-4-carboxamide] | – | – | – | ≤ 100 | – | – | – | 2.01 to 5 | 1.01 to 2 | > 5 | 2.01 to 5 | > 5 | 2.01 to 5 | 5 to 7.5 | > 7.5 | > 7.5 | 1.31 to 1.5 | > 1.76 | 1.51 to 1.75 | –
4 | Cn1cnnc1C(F)(F)[C@](C)(F)c1cccc(N2Cc3c(cc(CN4CC[C@@H](C#N)C4)cc3C(F)(F)F)C2=O)c1 [Compound 455, (R)-1-((3-oxo-2-(3-((R)-1,1,2-trifluoro-1-(4-methyl-4H-1,2,4-triazol-3-yl)propan-2-yl)phenyl)-7-(trifluoromethyl)isoindolin-5-yl)methyl)pyrrolidine-3-carbonitrile] | 5 to 7.5 | > 7.5 | > 7.5 | ≤ 100 | 1.01 to 1.3 | 1.31 to 1.5 | 1.31 to 1.5 | > 5 | 1.01 to 2 | > 5 | 2.01 to 5 | > 5 | 2.01 to 5 | – | – | – | – | – | – | –
5 | Cn1cnnc1C(F)(F)[C@](C)(F)c1cccc(N2Cc3c(cc(CN4CC[C@@H](F)C4)cc3C(F)(F)F)C2=O)c1 [Compound 450] | 2.51 to 5 | > 7.5 | > 7.5 | ≤ 100 | 1.31 to 1.5 | 1.51 to 1.75 | 1.51 to 1.75 | 2.01 to 5 | 1.01 to 2 | > 5 | 2.01 to 5 | > 5 | 2.01 to 5 | – | – | – | – | – | – | –
6 | C[C@H](Cc1nncn1C)c1cccc(N2Cc3c(cccc3C(F)(F)F)C2=O)c1 [Compound 255a, (R)-2-(3-(1-(4-methyl-4H-1,2,4-triazol-3-yl)propan-2-yl)phenyl)-4-(trifluoromethyl)isoindolin-1-one] | – | – | – | ≤ 100 | – | – | – | 1.01 to 2 | 1.01 to 2 | 1.01 to 2 | 1.01 to 2 | 2.01 to 5 | 2.01 to 5 | 1.01 to 2.5 | 2.51 to 5 | 5 to 7.5 | 1.31 to 1.5 | 1.51 to 1.75 | > 1.76 | fold induction at 1 µM (primary human NK cells; K562, 1:1 E/T, read-out: IFNγ secretion): 1.01 to 2; fold induction at 1 µM (primary human NK cells; K562, 1:1 E/T, read-out: MIP1β secretion): < 1; fold induction at 1 µM (primary human NK cells; K562, 1:1 E/T, read-out: TNFα secretion): < 1; fold induction at 10 µM (primary human NK cells; K562, 1:1 E/T, 10 μM, read-out: IFNγ secretion): 2.01 to 5; fold induction at 10 µM (primary human NK cells; K562, 1:1 E/T, 10 μM, read-out: MIP1β secretion): 1.01 to 2; fold induction at 10 µM (primary human NK cells; K562, 1:1 E/T, 10 μM, read-out: TNFα secretion): < 1; fold induction at 1 µM (primary human NK cells; K562, 5:1 E/T, read-out: IFNγ secretion): 1.01 to 2; fold induction at 1 µM (primary human NK cells; K562, 5:1 E/T, read-out: MIP1β secretion): < 1; fold induction at 1 µM (primary human NK cells; K562, 5:1 E/T, read-out: TNFα secretion): < 1; fold induction at 10 µM (primary human NK cells; K562, 5:1 E/T, 10 μM, read-out: IFNγ secretion): > 5; fold induction at 10 µM (primary human NK cells; K562, 5:1 E/T, 10 μM, read-out: MIP1β secretion): 1.01 to 2; fold induction at 10 µM (primary human NK cells; K562, 5:1 E/T, 10 μM, read-out: TNFα secretion): < 1
7 | C[C@H](Cc1nncn1C)c1cccc(NC(=O)c2n[nH]c3c2CCC3)c1 [Compound 313, (R)-N-(3-(1-(4-Methyl-4H-1,2,4-triazol-3-yl)propan-2-yl)phenyl)-1,4,5,6-tetrahydrocyclopenta[c]pyrazole-3-carboxamide] | – | – | – | ≤ 300 | – | – | – | < 1 | 1.01 to 2 | 1.01 to 2 | 1.01 to 2 | 2.01 to 5 | 1.01 to 2 | 1.01 to 2.5 | 1.01 to 2.5 | 2.51 to 5 | 1.01 to 1.3 | 1.01 to 1.3 | 1.01 to 1.3 | –
8 | C[C@H](Cc1nncn1C)c1cccc(NC(=O)c2cccc(C(F)(F)F)n2)c1 [Compound 183a, (R)-N-(3-(1-(4-methyl-4H-1,2,4-triazol-3-yl)propan-2-yl)phenyl)-6-(trifluoromethyl)picolinamide] | – | – | – | ≤ 100 | – | – | – | 2.01 to 5 | 1.01 to 2 | 2.01 to 5 | 2.01 to 5 | 2.01 to 5 | 2.01 to 5 | 2.51 to 5 | 5 to 7.5 | > 7.5 | > 1.76 | > 1.76 | > 1.76 | –
